The test has as its target C-Raf FL (full length CRAF with Y340E and Y341E activating mutations, co-expressed with h14-3-3 zeta) (Homo sapiens (Human), UniProt P04049, Y340E/Y341E). Kind of test: In vitro Raf activity determination, AlphaScreen p-MEK readout, c-Raf (C-Raf FL). The test is classed as biochemical. As to conditions: c-Raf approximately 4 nM, ATP 1 μM, pre-incubation 60 minutes, reaction 1 hour. A digest of the protocol: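 Full-length C-Raf (~4 nM) pre-incubated 60 min at room temperature with compound and kinase-dead biotinylated MEK1 (~10 nM) in Tris pH 7.5, 15 mM MgCl2, BSA, DTT. Reaction started with 1 μM ATP and run 1 h at room temperature. Phospho-MEK detected by AlphaScreen with anti-p-MEK antibody.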

The results in this text go back to US10377770B2 (Novartis AG, priority 2015, dated 2019).

Structures are written as SMILES.

Sequence of C-Raf FL (full length CRAF with Y340E and Y341E activating mutations, co-expressed with h14-3-3 zeta) (P04049 whole entry Y340E/Y341E): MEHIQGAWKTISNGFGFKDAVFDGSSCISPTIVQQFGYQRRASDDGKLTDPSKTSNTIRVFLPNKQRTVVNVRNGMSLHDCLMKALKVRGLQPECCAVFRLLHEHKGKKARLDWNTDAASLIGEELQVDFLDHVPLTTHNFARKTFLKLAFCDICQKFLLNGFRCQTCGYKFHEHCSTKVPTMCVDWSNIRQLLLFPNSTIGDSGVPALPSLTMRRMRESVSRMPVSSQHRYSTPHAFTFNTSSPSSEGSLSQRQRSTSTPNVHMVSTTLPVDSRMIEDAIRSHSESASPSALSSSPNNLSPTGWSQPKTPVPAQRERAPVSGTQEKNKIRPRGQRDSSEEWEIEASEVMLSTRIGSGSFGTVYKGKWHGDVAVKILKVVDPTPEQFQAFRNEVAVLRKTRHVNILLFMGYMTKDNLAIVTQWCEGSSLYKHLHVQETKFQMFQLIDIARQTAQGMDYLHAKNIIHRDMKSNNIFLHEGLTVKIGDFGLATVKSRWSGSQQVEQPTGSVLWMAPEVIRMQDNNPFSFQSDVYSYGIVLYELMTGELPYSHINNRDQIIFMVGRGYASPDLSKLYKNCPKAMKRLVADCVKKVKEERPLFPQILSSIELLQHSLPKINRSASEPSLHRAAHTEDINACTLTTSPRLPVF
Sequence of C-Raf FL (full length CRAF with Y340E and Y341E activating mutations, co-expressed with h14-3-3 zeta) (P63104 whole entry partner): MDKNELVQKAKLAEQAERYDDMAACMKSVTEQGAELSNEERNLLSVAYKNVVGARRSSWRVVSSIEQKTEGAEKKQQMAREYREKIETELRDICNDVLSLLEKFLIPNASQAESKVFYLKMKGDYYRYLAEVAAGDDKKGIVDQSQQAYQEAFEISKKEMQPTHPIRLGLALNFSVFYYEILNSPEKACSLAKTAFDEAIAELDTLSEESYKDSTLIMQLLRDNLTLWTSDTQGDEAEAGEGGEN

In general, IC50 refers to the concentration at which inhibition is half-maximal. Low values mean greater potency, high ones weaker potency. In turn, `Cc1ncc(NC(=O)c2cccc(C(F)(F)F)c2)cc1-c1cnc2c(c1)N1CCOC[C@H]1[C@@H](CO)C2` [Example 490, N-(5-((4aR,5S)-5-(hydroxymethyl)-1,2,4,4a,5,6-hexahydro-[1,4]oxazino[4,3-a][1,5]naphthyridin-9-yl)-6-methylpyridin-3-yl)-3 - (trifluoro-methyl)benzamide] returned an IC50 of 0.5 nM.

`CCN1C(=O)[C@H]2[C@@H]3COC[C@@H]3[C@H]2c2cc(-c3cc(NC(=O)c4ccnc(C(C)(F)F)c4)ccc3C)cnc21` [Example 271, 2-(1,1-difluoroethyl)-N-(3-((6aR, 6bR, 9aR, 9bR)-5-ethyl-6-oxo-5,6,6a,6b,7,9,9a,9b-octahydrofuro[3′,4′: 3,4]cyclobuta[1,2-c][1,8]naphthyridin 2-yl)-4-methylphenyl) isonicotinamide] returned an IC50 of 0.2 nM.

Compound `Cc1ccc(NC(=O)c2ccnc(C(C)(F)F)c2)cc1-c1ccc2c(c1)N1CCOC[C@H]1C[C@@]2(C)O` [Example 24, 2-(1,1-difluoroethyl)-N-(3-((4aR,6R)-6-hydroxy-6-methyl-1,2,4,4a,5,6-hexahydro-[1,4]oxazino[4,3-a]quinolin-9-yl)-4-methylphenyl)isonicotinamide] registered a half-maximal inhibitory concentration (IC50) of 0.049 nM. For `Cc1ncc(NC(=O)c2cccc(C(F)(F)F)c2)cc1-c1cnc2c(c1)C1CCOCCC1C(=O)N2CCO` (stereo not drawn) [Example 285, N-(5-(7-(2-hydroxyethyl)-6-oxo-1,2,4,5,5a,6,7,11b-octahydrooxepino [4,5-c][1,8]naphthyridin-10-yl)-6-methylpyridin-3-yl)-3-(trifluoromethyl) benzamide] the value was 0.1 nM. `Cc1ccc(NC(=O)c2ccnc(C(F)(F)F)c2)cc1-c1cc2c(nn1)OC(C)(C)C1COCCN21` (racemic) [Example 139, rac-N-(3-(6,6-dimethyl-6a,7,9,10-tetrahydro-6H-[1,4]oxazino[4,3-d]pyridazino[3,4-b][1,4]oxazin-2-yl)-4-methylphenyl)-2-(trifluoromethyl)isonicotinamide] returned an IC50 of 0.057 nM.

Compound `Cc1ncc(NC(=O)c2cccc(C(F)(F)F)c2)cc1-c1cnc2c(c1)N1CCOC[C@@H]1[C@H](CO)C2` (racemic) [Example 119, rac-trans-N-(5-(5-(Hydroxymethyl)-1,2,4,4a,5,6-hexahydro-[1,4]oxazino[4,3-a][1,5]naphthyridin-9-yl)-6-methylpyridin-3-yl)-3-(trifluoromethyl)benzamide] returned an IC50 of 0.01 nM.

Regarding `Cc1ccc(NC(=O)c2ccnc(C(C)(F)F)c2)cc1-c1cc2c(cc1F)C[C@](F)(CO)[C@H]1COCCN21` [Example 476, N-(3-((4aR,5R)-5,8-difluoro-5-(hydroxymethyl)-1,2,4,4a,5,6-hexahydro-[1,4]oxazino[4,3-a]quinolin-9-yl)-4-methylphenyl)-2-(1,1-difluoroethyl)iso-nicotinamide], 0.2 nM corresponded to half-maximal inhibition (IC50).

For `Cc1ccc(NC(=O)c2ccnc(C(C)(F)F)c2)cc1-c1cnc2c(c1)N1CCOC[C@@H]1[C@H](CO)C2` (racemic) [Example 116, rac-trans-2-(1,1-Difluoroethyl)-N-(3-(5-(hydroxymethyl)-1,2,4,4a,5,6-hexahydro-[1,4]oxazino[4,3-a][1,5]naphthyridin-9-yl)-4-methylphenyl)isonicotinamide], the IC50 is below 0.0017 nM. `Cc1ncc(NC(=O)c2cccc(C(F)(F)F)c2)cc1-c1cc2c(nn1)[C@H](O)C[C@@H]1COCCN21` (racemic) [Example 47, (rac)-(trans)-N-(5-(5-hydroxy-5,6,6a,7,9,10-hexahydropyridazino[3′,4′:5,6]pyrido[2,1-c][1,4]oxazin-2-yl)-6-methylpyridin-3-yl)-3-(trifluoromethyl)benzamide]: the IC50 is 0.073 nM. In turn, `Cc1ncc(NC(=O)c2cccc(C(F)(F)F)c2)cc1-c1cnc2c(c1)N1CCOC[C@H]1C[C@@]2(C)O` (racemic) [Example 43, (rac)-(trans)-N-(5-(6-hydroxy-6-methyl-1,2,4,4a,5,6-hexahydro-[1,4]oxazino[4,3-a][1,5]naphthyridin-9-yl)-6-methylpyridin-3-yl)-3-(trifluoromethyl)benzamide] came in with an IC50 of 0.0082 nM.

In turn, `Cc1ncc(NC(=O)c2ccnc(C(C)(F)F)c2)cc1-c1ccc2c(c1)N1CCOC[C@H]1[C@@](C)(C#N)C2` [Example 375, N-(5-((4aR,5S)-5-cyano-5-methyl-1,2,4,4a,5,6-hexahydro-[1,4]oxazino[4,3-a]quinolin-9-yl)-6-methylpyridin-3-yl)-2-(1,1-difluoroethyl)isonicotinamide] gave an IC50 of 0.4 nM. Consider `CCN1C[C@@H]2COCCN2c2cc(-c3cc(NC(=O)c4ccnc(C(C)(F)F)c4)ccc3C)cnc2C1=O` [Example 502, (R)-2-(1,1-difluoroethyl)-N-(3-(6-ethyl-7-oxo-1,2,4a,5,6,7-hexahydro-4H-[1,4]oxazino[4,3-a]pyrido[2,3-f][1,4]diazepin-10-yl)-4-methylphenyl)iso-nicotinamide], for which inhibition was half-maximal at 0.2 nM (IC50).

In turn, `Cc1ccc(NC(=O)c2ccnc(C(F)(F)F)c2F)cc1-c1cnc2c(c1)N1CCOC[C@H]1CC(=O)N2CC(C)(C)O` [Example 290, (R)-3-fluoro-N-(3-(7-(2-hydroxy-2-methylpropyl)-6-oxo-2,4,4a,5,6,7-hexahydro-1H-[1,4]oxazino[4,3-d]pyrido[2,3-b][1,4]diazepin-10-yl)-4-methylphenyl)-2-(trifluoromethyl) isonicotinamide] came in with an IC50 of 1 nM. Next, `CNC[C@H]1Cc2ncc(-c3cc(NC(=O)c4ccnc(C(F)(F)F)c4)ccc3C)cc2N2CCOC[C@H]12` [Example 531, N-(4-methyl-3-((4aS,5R)-5-((methylamino)meth-yl)-1,2,4,4a,5,6-hexahydro-[1,4]oxazino[4,3-a][1,5]naphthyridin-9-yl)phenyl)-2-(trifluoromethyl)iso-nicotinamide]: 0.2 nM; `Cc1ncc(NC(=O)c2ccnc(C(C)(F)F)c2)cc1-c1ccc2c(c1)N1CCOC[C@H]1[C@@](C)(C#N)C2` (racemic) [Example 89, (rac)-N-(5-(5-cyano-5-methyl-1,2,4,4a,5,6-hexahydro-[1,4]oxazino[4,3-a]quinolin-9-yl)-6-methylpyridin-3-yl)-2-(1,1-difluoroethyl)isonicotinamide]: 0.036 nM. Regarding `Cc1ccc(NC(=O)c2ccnc(C(C)(F)F)c2)cc1-c1ccc2c(c1)N1CCOCC1C1(COC1)C2` (racemic) [Example 55, (rac)-2-(1,1-difluoroethyl)-N-(4-methyl-3-(2,4,4a,6-tetrahydro-1H-spiro[[1,4]oxazino[4,3-a]quinoline-5,3′-oxetan]-9-yl)phenyl)isonicotinamide], the IC50 is 0.022 nM. Compound `Cc1ncc(NC(=O)c2cccc(C(F)(F)F)c2)cc1-c1cnc2c(c1)N1CCOC[C@H]1[C@H](CO)C2` [Example 120, N-(5-((4aR,5R)-5-(Hydroxymethyl)-1,2,4,4a,5,6-hexahydro-[1,4]oxazino[4,3-a][1,5]naphthyridin-9-yl)-6-methylpyridin-3-yl)-3-(trifluoromethyl)benzamide] registered an IC50 of 0.011 nM.

As to `Cc1ccc(NC(=O)c2ccnc(C(C)(C)C#N)c2)cc1-c1cnc2c(c1)N1CCOCC1C1(COC1)C2` (racemic) [Example 157, rac-2-(2-cyanopropan-2-yl)-N-(4-methyl-3-(2,4,4a,6-tetrahydro-1H-spiro[[1,4]oxazino[4,3-a][1,5]naphthyridine-5,3′-oxetan]-9-yl)phenyl)isonicotinamide], the IC50 is 0.16 nM.

Compound `Cc1ccc(NC(=O)c2ccnc(C(F)(F)F)c2F)cc1-c1cnc2c(c1)C1(C)CCOCCC1C(=O)N2CCO` (single isomer, unassigned) [Example 354, 3-fluoro-N-(3-((5a,11b-trans)-7-(2-hydroxyethyl)-11b-methyl-6-oxo-1,2,4,5,5a,6,7,11b-octahydrooxepino[4,5-c][1,8]naphthyridin-10-yl)-4-methylphenyl)-2-(trifluoromethyl)isonicotinamide] gave an IC50 of 0.3 nM. For `Cc1ccc(NC(=O)c2ccnc(C(C)(F)F)c2)cc1-c1cnc2c(c1)[C@@]1(C)CCOCC[C@@H]1C(=O)N2CCO` (relative stereo) [Example 351, 2-(1,1-difluoroethyl)-N-((5a,11b-trans)-3-(7-(2-hydroxyethyl)-11b-methyl-6-oxo-1,2,4,5,5a,6,7,11b-octahydrooxepino[4,5-c][1,8]naphthyridin-10-yl)-4-methylphenyl) isonicotinamide] the value was 1.1 nM. For `Cc1ccc(NC(=O)c2ccnc(C(F)(F)F)c2)cc1-c1cc2c(cc1F)C[C@](F)(CO)[C@H]1COCCN21` [Example 480, N-(3-((4aR,5R)-5,8-difluoro-5-(hydroxymethyl)-1,2,4,4a,5,6-hexahydro-[1,4]oxazino[4,3-a]quinolin-9-yl)-4-methylphenyl)-2-(trifluoromethyl) isonicotinamide], 0.2 nM corresponded to half-maximal inhibition (IC50). Next, `Cc1ccc(NC(=O)c2cc(C(F)(F)F)ccn2)cc1-c1cnc2c(c1)N1CCOCC1C(CO)(CO)C2` (racemic) [Example 159, rac-N-(3-(5,5-bis(hydroxymethyl)-1,2,4,4a,5,6-hexahydro-[1,4]oxazino[4,3-a][1,5]naphthyridin-9-yl)-4-methylphenyl)-4-(trifluoromethyl)picolinamide]: 0.0068 nM. `CC[C@H]1Oc2nnc(-c3cc(NC(=O)c4ccnc(C(C)(F)F)c4)ccc3C)cc2N2CCOC[C@H]12` [Example 533, 2-(1,1-difluoroethyl)-N-(3-((6R,6aR)-6-ethyl-6a,7,9,10-tetrahydro-6H-[1,4]oxazino[4,3-d]pyridazino[3,4-b][1,4]oxazin-2-yl)-4-methylphenyl)isonicotinamide]: the IC50 was 0.1 nM. Next, `Cc1ccc(NC(=O)c2ccnc(C(C)(F)F)c2)cc1-c1cnc2c(c1)N1CCOC[C@@H]1[C@H](CO)C2` [Example 495, 2-(1,1-difluoroethyl)-N-(3-((4aS,5R)-5-(hydroxymethyl)-1,2,4,4a,5,6-hexahydro-[1,4]oxazino[4,3-a][1,5]naphthyridin-9-yl)-4-methylphenyl)iso-nicotinamide]: 0.1 nM.
